Patent US12077534B2, “Aza-heterobicyclic inhibitors of MAT2A and methods of use for treating cancer” (Les Laboratoires Servier SAS, priority 2018, dated 2024)

What was measured:
MAT2A homodimer = biological target: T1, MAT2A homodimer (Homo sapiens, UniProt P31153); test: MAT2A biochemical assay (phosphate release, PiColorLock Gold); details: recombinant MAT2A homodimer, 60 min pre-incubation, 25° C.; read-out: Enzyme Inhibition
T1 construct: inferred from Ni sepharose purification and imidazole elution; made in house; host or cells: SF9 insect cells, recombinant baculovirus (Bac to Bac, pFASTBAC1)
How it was run: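 Baculovirus/Sf9-expressed, Ni-purified MAT2A homodimer (4 µg/mL in pH 8.0 Tris/KCl/MgCl2 buffer) preincubated 60 min at 25 °C with compound (2% DMSO final). Substrate mix of 500 µM ATP and 400 µM L-methionine added; 60 min at 25 °C; released phosphate quantified colorimetrically against a phosphate standard curve.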

HCT116 MTAP−/− = test: Inhibition of cellular proliferation (Cell Titer Glo), HCT116 MTAP-/-; assay type: cell-based; details: Homo sapiens, HCT-116, 96 h, 4 days, read-out: 4 Day Relative Growth Inhibition (MTAP −/−)
How it was run: (§1)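 Isogenic HCT116 MTAP+/+ and MTAP−/− cells treated 24 h after plating with 10-point 3-fold dilutions, then grown 4 days at 37 °C/5% CO2. ATP content read by Cell Titer Glo luminescence, blank-subtracted and normalized to 0.2% DMSO control, plotted as percent proliferation change versus log molar concentration.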

HCT116 MTAP+/+ = test: Inhibition of cellular proliferation (Cell Titer Glo), HCT116 MTAP+/+; assay type: cell-based; details: Homo sapiens, HCT-116, 96 h, 4 days, read-out: 4 Day Relative Growth Inhibition (MTAP +/+)
How it was run: as §1

[1] = test system: MAT2A activity (SAM) in HCT116 cells with deleted MTAP gene; test: Cellular assay of target engagement (SAM) by LC-MS/MS; assay type: cell-based; details: Homo sapiens, HCT-116; HCT116 MTAP −/−, 72 hrs; read-out: Cell 72 h SAM Inhibition (MTAP −/−)
How it was run: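 HCT116 MTAP-deleted cells treated with 10-point 3-fold DMSO serial dilutions of compound for 72 hrs at 37° C. Cells lysed in cold 80% methanol/acetic acid extraction buffer with d3-SAM internal standard; SAM quantified by LC-MS/MS (MRM m/z 399.2→250.1).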

T1 sequence (P31153 whole entry): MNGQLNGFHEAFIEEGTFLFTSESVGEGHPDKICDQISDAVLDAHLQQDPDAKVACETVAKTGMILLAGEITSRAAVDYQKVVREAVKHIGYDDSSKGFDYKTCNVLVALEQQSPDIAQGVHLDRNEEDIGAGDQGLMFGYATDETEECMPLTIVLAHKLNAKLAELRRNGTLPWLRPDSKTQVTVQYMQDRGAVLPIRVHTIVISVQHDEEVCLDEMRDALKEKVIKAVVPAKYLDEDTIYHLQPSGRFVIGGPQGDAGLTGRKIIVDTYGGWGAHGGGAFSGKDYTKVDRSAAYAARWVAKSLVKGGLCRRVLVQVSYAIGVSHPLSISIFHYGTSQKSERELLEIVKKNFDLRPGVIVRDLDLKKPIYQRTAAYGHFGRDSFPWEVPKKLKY

| IC50 (MAT2A homodimer) | IC50 (HCT116 MTAP−/−) | IC50 (HCT116 MTAP+/+) | IC50 [1] | SMILES |
| --- | --- | --- | --- | --- |
| < 100 nM | < 100 nM | ≥ 1000 nM | < 100 nM | [2H]C([2H])([2H])n1cc2cc(-n3nc4ccc(NC([2H])([2H])C([2H])([2H])[2H])nc4c(-c4ccc(C(F)F)nc4)c3=O)ccc2n1 [Example 321, 4-(6-(difluoromethyl)pyridin-3-yl)-6-((ethyl-d5)amino)-2-(2-(methyl-d3)-2H-indazol-5-yl)pyrido[3,2-c]pyridazin-3(2H)-one] |
| < 100 nM | < 100 nM | < 100 nM | < 100 nM | [2H]C([2H])([2H])C([2H])([2H])Nc1ccc2nn(-c3ccc4nn(C)cc4c3)c(=O)c(-c3ccc(C)nc3)c2n1 [Example 323] |
| < 100 nM | < 100 nM | ≥ 1000 nM | < 100 nM | CCNc1ccc2nn(-c3ccc4nc(C)n(C)c4c3)c(=O)c(-c3ccc(C(F)F)nc3)c2n1 [Example 327] |
| < 100 nM | < 100 nM | ≥ 1000 nM | < 100 nM | Cn1cc2cc(-n3nc4ccc(OCC(F)F)nc4c(-c4ccc5[nH]cc(C#N)c5c4)c3=O)ccc2n1 [Example 331, 5-(6-(2,2-difluoroethoxy)-2-(2-methyl-2H-indazol-5-yl)-3-oxo-2,3-dihydropyrido[3,2-c]pyridazin-4-yl)-1H-indole-3-carbonitrile] |
